In ChEMBL document CHEMBL1152341, “Polyacetylenes from sardinian Oenanthe fistulosa: a molecular clue to risus sardonicus” (J Nat Prod, 2009):

How the values were obtained:
[1] = (§1) Antagonist activity at GABAA receptor in Wistar rat neuronal cells assessed inhibition of GABA-evoked response by patch-clamp technique; format: functional, cell-based
[2] = system: neuronal; experiment: as §1; format: functional, cell-based

Compound	EC50 [1]	Activity [2]
CCC[C@@H](O)CC/C=C/C=C/C#CC#CCCCO [DIHYDROOENANTHOTOXIN]	835 nM	–
CCC[C@@H](O)CC/C=C/C=C/C#CC#C/C=C/CO [OENANTHOTOXIN]	1390 nM	Dose-dependent effect
